Consider 76 molecules from the OPERA property sets (Mansouri et al. 2018).

Conditions in the first data set: not given
`CCOC(=O)[C@H](CCc1ccccc1)N[C@H]1CCc2ccccc2N(CC(=O)O)C1=O` displayed a melting point of 148 °C.
On the same count and under the same terms, for `O=C1OC(c2ccccc2)(c2ccccc2)c2ccccc21` the value was 120 °C.
In turn, `Clc1cc(Cl)c2c(Cl)c(Cl)cc(Cl)c2c1Cl` returned a log10 Koa of 9.69 and a log10 vapour pressure (mmHg) of -6.46.
Take `Nc1nc(N)nc(-c2ccccc2)n1`: the melting point turned out to be 226 °C and the ready biodegradability result is “not readily biodegradable”.
In turn, `O=C=NC1CCCCC1` came in with a boiling point of 172 °C, a log10 vapour pressure (mmHg) of 0.0086 and a melting point of -80 °C.
Consider `CC(=O)c1ccc([N+](=O)[O-])cc1`, for which the melting point is 81.8 °C.
On to `Cc1cccc([N+](=O)[O-])c1O`, for which the log10 Henry constant (atm·m³/mol) is -4.47 and the melting point was 70 °C.
Consider `FC(F)(F)c1cccc(C(F)(F)F)c1`, for which the boiling point was 116 °C and the ready biodegradability entry is listed as “not readily biodegradable”.
`Cc1ccc(Oc2ccc([N+](=O)[O-])cc2)cc1` showed a melting point of 69 °C.
Take `C=CC(=O)NCOCCCC`: the ready biodegradability result is “readily biodegradable”.
As for `CC(CO)CC(F)(F)F` (stereo unspecified), the boiling point was 132 °C.
Still for that read-out and setting: for `CCC(=O)C1CCCCC1` the value was 196 °C.
Molecule `CCCCS(=O)CCCC` gave a melting point of 32.6 °C.
In the case of `CC(=O)Nc1nnc(S(N)(=O)=O)s1`, the melting point stood at 260 °C.
Same read-out and setting: for `CCN(CC)CCOC(=O)c1ccc(N)cc1` the value was 61 °C; for `O=C(Cl)c1ccc(F)cc1`, 9 °C.
Take `CC(=O)CC(c1ccccc1)c1c(O)c2ccccc2oc1=O` (stereo unspecified): the log10 Koc (L/kg) came out at 2.96 and the log10 vapour pressure (mmHg) is -6.94.
`CCCC(CC)CCC` registered a boiling point of 141 °C.
Turning to `CCC(O)C(Cl)(Cl)Cl` (stereo unspecified), the boiling point is 171 °C.
The molecule `CC(=O)NC(Cc1c[nH]c2ccccc12)C(=O)O` (stereo unspecified) registered a melting point of 190 °C.
`CC(=O)O[C@]1(C(C)=O)CC[C@H]2[C@@H]3C=C(C)C4=CC(=O)CC[C@]4(C)[C@H]3CC[C@@]21C`: the melting point stood at 214 °C.
For `CCC#CCCCCC(=O)O`, the melting point came out at 14 °C.
The molecule `CCC(=O)c1cc(C)ccc1O` had a melting point of 2 °C.
As for `Nc1cccc2c1C(=O)c1cccc(N)c1C2=O`, the melting point stood at 319 °C.
Turning to `Cc1ccc(CCl)c(C)c1`, the boiling point turned out to be 216 °C.
With `Cc1ccc2cccc(C)c2n1`, the boiling point turned out to be 255 °C and the melting point is 27 °C.
For the molecule `C=COCCCl`, the boiling point was 108 °C, the log10 vapour pressure (mmHg) turned out to be 1.43, the melting point was -70 °C and the ready biodegradability entry is recorded as “readily biodegradable”.
On to `C=CC(=O)NCO`, for which the melting point came to 74.5 °C.
`COc1ccc2c(c1)C(=O)c1ccccc1C2=O` registered a log10 vapour pressure (mmHg) of -10.2.
Molecule `NC(=O)NC1NC(=O)NC1=O` (stereo unspecified) came in with a melting point of 238 °C.
`C=C(Br)CC` yielded a boiling point of 88 °C and a melting point of -133 °C.
For the molecule `CCCCCC(=O)OCC`, the boiling point is 167 °C, the log10 Koc (L/kg) worked out at 2.06 and the melting point was -67 °C.
`CC(C)Cc1ccc(N)cc1` showed a boiling point of 238 °C.
On to `Clc1ccccc1-c1cc(Cl)c(Cl)c(Cl)c1Cl`, for which the log10 vapour pressure (mmHg) is -4.16.
The molecule `CC(C)CNCCO` displayed a boiling point of 199 °C.
Consider `OCCOCCOCCO`, for which the boiling point is 285 °C, the melting point was -7 °C and the ready biodegradability entry was “readily biodegradable”.
For `CN1CCC(=C2c3ccccc3C=Cc3ccccc32)CC1`, the melting point was found to be 113 °C.
In turn, `Cc1cccc(C)n1` came in with a boiling point of 144 °C, a log10 Henry constant (atm·m³/mol) of -4.98, a log10 vapour pressure (mmHg) of 0.752 and a melting point of -6.1 °C.
Take `O=C(O)C(F)(F)C(F)(F)C(F)(F)C(F)(F)C(F)(F)C(F)F`: the boiling point is 192 °C and the melting point came out at 34 °C.
In turn, `COc1ccc(CCC(C)=O)cc1` displayed a melting point of 8 °C.
The molecule `CC(=O)O[Si](C)(C)OC(C)=O` registered a boiling point of 165 °C and a melting point of -12.5 °C.
Regarding `C#CCOS(=O)OC1CCCCC1Oc1ccc(C(C)(C)C)cc1` (stereo unspecified), the log10 Koc (L/kg) is 3.6 and the log10 vapour pressure (mmHg) was -6.52.
Regarding `Clc1ccc2c(Cl)c(Cl)cc(Cl)c2c1`, the log10 Koa is 8.08.
`CC1CCC(C)C1=O` (stereo unspecified) returned a boiling point of 146 °C.
Consider `CCN(Cc1ccc(Cl)nc1)C(=C[N+](=O)[O-])NC`, for which the melting point came to 82.8 °C.
Turning to `Nc1ccc2c(c1)C(=O)c1ccccc1C2=O`, the log10 vapour pressure (mmHg) is -10.3, the melting point is 304 °C and the ready biodegradability entry was “not readily biodegradable”.
The molecule `COc1cc2c(cc1O)[C@H](Cc1ccc(O)cc1)NCC2` registered a melting point of 220 °C.
Take `FCCBr`: the boiling point was found to be 71.5 °C.
`O=C1c2ccccc2Cc2ccccc21` yielded a melting point of 155 °C.
`C=CC#CCCC`: the boiling point amounted to 110 °C.
With `CCOc1cccc([N+](=O)[O-])c1`, the boiling point is 264 °C and the melting point was 36 °C.
Molecule `CCOP(=O)(OCC)Oc1ccc([N+](=O)[O-])cc1` displayed a log10 vapour pressure (mmHg) of -5.96 and a melting point of 300 °C.
Molecule `CC(=O)NC(=O)NC(C)=O` displayed a melting point of 154 °C.
The molecule `CCc1cc(CC)cc(CC)c1` displayed a boiling point of 216 °C and a melting point of -66.5 °C.
In the case of `Cc1ccc2ccc3ccc(C)cc3c2c1`, the melting point worked out at 145 °C.
In the case of `COC(=O)C(C)C`, the boiling point was found to be 92.5 °C, the log10 vapour pressure (mmHg) is 1.69 and the melting point is -84.7 °C.
`CN(C)C1CCCCC1`: the boiling point stood at 160 °C and the log10 Henry constant (atm·m³/mol) was -4.63.
The molecule `O=C(O)c1cccc(F)c1` yielded a melting point of 124 °C.
Turning to `C[Si](C)(C)c1ccccc1`, the boiling point was 170 °C.
With `Cc1c(O)cccc1O`, the boiling point is 264 °C, the melting point was 120 °C and the ready biodegradability result is listed as “not readily biodegradable”.
As to `Clc1ccc2cc(Cl)ccc2c1`, the boiling point came out at 285 °C and the melting point was found to be 140 °C.
Molecule `CC(C)NCC(O)COc1cccc2c1C=CC2` (stereo unspecified) returned a melting point of 88.5 °C.
`c1cc2ccc3ccc4ccc5cccc6c(c1)c2c3c4c56` had a log10 Henry constant (atm·m³/mol) of -6.48, a log10 Koc (L/kg) of 4.61, a log10 biodegradation half-life (days) of 2.75 and a log10 vapour pressure (mmHg) of -10. The melting point is 278 °C.
In the case of `C=CCOC(=O)C(=O)OCC=C`, the boiling point was 217 °C.
On to `CCOC(=O)CCCCCCCCC(=O)OCC`, for which the boiling point was 305 °C, the log10 vapour pressure (mmHg) is -3.29 and the melting point is 5 °C.
`OCCOc1ccccc1` yielded a boiling point of 245 °C, a log10 vapour pressure (mmHg) of -2.15 and a melting point of 14 °C.
Molecule `Clc1ccc(Br)s1` yielded a melting point of -20 °C.
`Cc1cccc(CC#N)c1` had a boiling point of 248 °C.
The same measure, in the same setting: for `CC(C)ON=O` the value was 40 °C.
`CCCCCCCCn1sccc1=O` returned a log10 vapour pressure (mmHg) of -4.43.
The molecule `O=C(c1ccccc1)c1cccs1` gave a boiling point of 300 °C and a melting point of 56.5 °C.
In turn, `O=c1c2ccccc2oc2ccccc12` displayed a boiling point of 351 °C and a melting point of 174 °C.
The molecule `Clc1cc(Cl)nc(-c2ccccc2)n1` displayed a log10 vapour pressure (mmHg) of -4.05 and a melting point of 96.9 °C.
`CCCCCCCCCCCCCCCCCCCCCCCCCC` registered a boiling point of 412 °C, a log10 biodegradation half-life (days) of 2, a log10 vapour pressure (mmHg) of -6.33 and a melting point of 56.4 °C. The ready biodegradability result is “readily biodegradable”.
As to `CCC(CC)C(CC)CC`, the boiling point turned out to be 164 °C.
`CC(C=O)Cc1ccc(C(C)(C)C)cc1` (stereo unspecified): the ready biodegradability entry is on record as “not readily biodegradable”.

Staying with this data set, now noted: fish.
On to `Nc1ccc2c(c1)C(=O)c1ccccc1C2=O`, for which the log10 BCF came out at 1.51 and the log10 biotransformation half-life (days) was -1.06.

The melting point is the temperature of the solid-liquid transition. As usually defined, the boiling point is the temperature at which the vapour pressure of the liquid equals the pressure above it.
